# According to patent publication US5605929A, “Methods and compositions for inhibiting 5α-reductase activity” (priority 1995, dated 1997):
# Where two headings read alike, the source gives them in different places.
# Key:
# [1] = molecular target: T1, 5α-Reductase of Rat Liver Microsomes (Rattus norvegicus, UniProt P24008); test: [3H]4-MA binding assay, rat liver microsomes (tea catechins); conditions: for inhibition at 5 µM / inhibition at 10 µM / inhibition at 20 µM / inhibition at 40 µM / inhibition at 200 µM: read-out: % Inhibition of [^3 H]4-MA binding; for inhibitory activity: concentrations up to 200 μM
# T1 sequence (P24008 1-259): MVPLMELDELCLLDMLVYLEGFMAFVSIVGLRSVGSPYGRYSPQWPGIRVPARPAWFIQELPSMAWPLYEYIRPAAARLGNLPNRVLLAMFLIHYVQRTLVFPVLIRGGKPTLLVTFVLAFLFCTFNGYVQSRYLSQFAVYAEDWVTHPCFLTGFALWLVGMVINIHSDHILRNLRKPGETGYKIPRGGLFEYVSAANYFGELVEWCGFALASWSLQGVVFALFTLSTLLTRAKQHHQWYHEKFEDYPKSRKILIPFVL
# Description: Microsomes were prepared as described previously (Liang and Liao, 1992) from the liver of adult Sprague-Dawley female rats or Rat-1A cells expressing a specific type of human 5α-reductase. Each study was carried out in duplicate or triplicate which were usually within 10% of each other. Several studies were preformed to assure that the results shown are representative. The data presented was based on the rate of reaction.
# [^3 H]4-MA binding assay were described in detail previously (Liang and Liao, 1992; Liang et al., 1983). […] The reaction was started by the addition of 25 μl of microsomes (25 μg protein). After 30-60 min incubation at 0° C., the [^3 H]4-MA bound to microsomes was collected on a Whatman GF/F glass fiber, washed and radioactivity determined (Liang and Liao, 1992).
# [2] = molecular target: T1, 5α-Reductase of Rat Liver Microsomes
# hamster flank organ = test: Flank organ, castrated immature male hamsters, topical treatment; format: in vivo, Syrian golden hamster; conditions: for effect on the contralateral flank organ: topical to right flank organ; for Percent Inhibition / Pigmented macule Right (+T): Table 5, T 0.5 μg + fatty acid 1 mg; for Percent Inhibition / Pigmented macule Right (+T) / Pigmented macule Left: 21 days; for Pigmented macule Right (+T): T alone 49.6 ± 8.3; for Pigmented macule Left: Table 5, fatty acid 1 mg without T; for inhibition of T-induced growth of pigmented macule: hamster, in vivo
# Description: One to two weeks after castration, the hair on the lower back of each animal was clipped with an electric hair clipper and then shaved weekly to expose the flank organs. The animals were divided into 5 animals/treatment group. A treatment solution (5 μl) was applied topically to the right flank organ once a day using a Pipetteman and a polypropylene disposable tip. Unless specified the left flank organ was not treated. The treatment solution contained either (a) ethanol alone (vehicle and control), (b) an androgen (T or 5α-DHT), (c) a fatty acid, or (d) a combination of an androgen and a fatty acid. The flank organ was wiped with an alcohol pad to remove residual compound before each treatment. […] The flank organs, both the treated and untreated sides, were evaluated with methods to be described below to determine the effect of these treatments of the growth of the pigmented macules and the sebaceous glands. The body weight of each animal was recorded before and after treatment.
# The data are presented as mean ± standard deviation. […]
# [3] = molecular target: T1, 5α-Reductase of Rat Liver Microsomes; test: biochemical; conditions: for inhibition at 5 µM: read-out: % Inhibition of [^3 H]4-MA binding, Table 2, 5 μM
# [4] = read-out: % Inhibition of [^3 H]4-MA binding, Table 1, 10 μM
# [5] = read-out: % Inhibition of [^3 H]4-MA binding, Table 1, 40 μM
# [6] = read-out: % Inhibition of [^3 H]4-MA binding, Table 1, 200 μM
# [7] = read-out: % Inhibition of [^3 H]4-MA binding, Table 2, 10 μM
# [8] = read-out: % Inhibition of [^3 H]4-MA binding, Table 2, 40 μM
# [9] = read-out: % Inhibition of [^3 H]4-MA binding, Table 2, 200 μM
# [10] = read-out: % Inhibition of [^3 H]4-MA binding
compound,measurement,setting,value
Oc1cc(O)c2c(c1)O[C@H](c1ccc(O)c(O)c1)[C@@H](O)C2 (relative stereo) [(±)Catechin],inhibition at 5 µM,"[1]; Table 8, 5 μM",< 10%
same,inhibition at 10 µM,"[1]; Table 8, 10 μM",< 10%
same,inhibition at 20 µM,"[1]; Table 8, 20 μM",< 10%
same,inhibition at 40 µM,"[1]; Table 8, 40 μM",< 10%
same,inhibition at 200 µM,"[1]; Table 8, 200 μM",< 10%
CCCCCCCC/C=C\CCCCCCCC(=O)OCC(O)COC(=O)CCCCCCC/C=C\CCCCCCCC [3-diolein],inhibitory activity in [^3 H]4-MA binding assay,[2],slightly stimulatory
"C[C@]12CCC(=O)C[C@@H]1CC[C@@H]1[C@@H]2CC[C@]2(C)[C@@H](O)CC[C@@H]12 [5α-DHT, 5α-dihydrotestosterone, reference compound]",effect on the contralateral flank organ,hamster flank organ,no detectable effect
Oc1cc(O)c2c(c1)O[C@H](c1ccc(O)c(O)c1)[C@@H](O)C2 [(+)Catechin],inhibition at 5 µM,"[1]; Table 8, 5 μM",< 10%
same,inhibition at 10 µM,"[1]; Table 8, 10 μM",< 10%
same,inhibition at 20 µM,"[1]; Table 8, 20 μM",< 10%
same,inhibition at 40 µM,"[1]; Table 8, 40 μM",< 10%
same,inhibition at 200 µM,"[1]; Table 8, 200 μM",< 10%
Oc1cc(O)c2c(c1)O[C@@H](c1cc(O)c(O)c(O)c1)[C@H](O)C2 [(-)Gallocatechin],inhibition at 5 µM,[1],< 10%
same,inhibition at 10 µM,[1],< 10%
same,inhibition at 20 µM,[1],< 10%
same,inhibition at 40 µM,[1],< 10%
same,inhibition at 200 µM,[1],< 10%
CCCCC/C=C\C/C=C\C/C=C\C/C=C\CCCC(=O)O [Arachidonic acid],IC50,[3],65 µM
same,inhibition at 10 µM,[3]; [4],< 10%
same,inhibition at 40 µM,[3]; [5],30 ± 10%
same,inhibition at 200 µM,[3]; [6],88 ± 5%
same,inhibition at 10 µM,[3]; [7],< 10%
same,inhibition at 40 µM,[3]; [8],30%
same,inhibition at 200 µM,[3]; [9],88%
same,Percent Inhibition,hamster flank organ,28%
same,Pigmented macule Right (+T),hamster flank organ,35.7 ± 7.9 mm^2
same,Pigmented macule Left,hamster flank organ,4.7 ± 1.6 mm^2
same,inhibition of T-induced growth of pigmented macule,hamster flank organ,Weak inhibitions
"O=C(O[C@H]1Cc2c(O)cc(O)cc2O[C@@H]1c1ccc(O)c(O)c1)c1cc(O)c(O)c(O)c1 [CG, (-)Catechin-3-gallate]",inhibition at 5 µM,[1],12%
same,inhibition at 10 µM,[1],31%
same,inhibition at 20 µM,[1],53%
same,inhibition at 40 µM,[1],73%
same,inhibition at 200 µM,[1],91%
same,IC50,"[1]; type 1 5α-reductase of rat liver microsomes, read-out: IC50",18 µM
"Cn1c(=O)c2c(ncn2C)n(C)c1=O [Caffeine, reference compound]",inhibitory activity,[1],not active
CCCCC/C=C\C/C=C\CCCCCCCC(=O)O [Linoleic acid],IC50,[3],117 µM
same,inhibition at 10 µM,[3]; [4],< 10%
same,inhibition at 40 µM,[3]; [5],12 ± 3%
same,inhibition at 200 µM,[3]; [6],86 ± 4%
same,inhibition at 10 µM,[3]; [7],< 10%
same,inhibition at 40 µM,[3]; [8],12%
same,inhibition at 200 µM,[3]; [9],86%
same,Percent Inhibition,hamster flank organ,52%
same,Pigmented macule Right (+T),hamster flank organ,23.9 ± 5.0 mm^2
same,Pigmented macule Left,hamster flank organ,5.4 ± 1.6 mm^2
same,inhibition of T-induced growth of pigmented macule,hamster flank organ,active
CCCCCCCC/C=C\CCCCCCCC(=O)O [Oleic acid],IC50,[3],128 µM
same,inhibition at 10 µM,[3]; [4],< 10%
same,inhibition at 40 µM,[3]; [5],16 ± 6%
same,inhibition at 200 µM,[3]; [6],63 ± 12%
same,inhibition at 5 µM,[3],< 10%
same,inhibition at 10 µM,[3]; [7],< 10%
same,inhibition at 40 µM,[3]; [8],16%
same,inhibition at 200 µM,[3]; [9],63%
same,Percent Inhibition,hamster flank organ,43%
same,Pigmented macule Right (+T),hamster flank organ,28.1 ± 8.3 mm^2
same,Pigmented macule Left,hamster flank organ,4.7 ± 0.5 mm^2
same,inhibition of T-induced growth of pigmented macule,hamster flank organ,active
CCCCCCCCCCCCCCCC(=O)O [Palmitic acid],inhibition at 200 µM,[3]; [6],< 10%
same,inhibition at 200 µM,[3]; [9],< 10%
same,Percent Inhibition,hamster flank organ,25%
same,Pigmented macule Right (+T),hamster flank organ,37.2 ± 6.3 mm^2
same,Pigmented macule Left,hamster flank organ,5.1 ± 2.9 mm^2
same,inhibition of T-induced growth of pigmented macule,hamster flank organ,Weak inhibitions
CCCCC[C@H](O)/C=C/[C@@H]1[C@H]2C/C(=C/CCCC(=O)O)O[C@H]2C[C@H]1O [Prostaglandin 12],inhibitory activity in [^3 H]4-MA binding assay,[2],not active
CCCCC[C@H](O)/C=C/[C@H]1[C@H](O)CC(=O)[C@@H]1C/C=C\CCCC(=O)O [Prostaglandin E2],inhibitory activity in [^3 H]4-MA binding assay,[2],not active
CCCCC[C@H](O)/C=C/[C@@H]1[C@@H](C/C=C\CCCC(=O)O)[C@@H](O)C[C@H]1O [Prostaglandin F2a],inhibitory activity in [^3 H]4-MA binding assay,[2],not active
"C[C@]12CC[C@H]3[C@@H](CCC4=CC(=O)CC[C@@]43C)[C@@H]1CC[C@@H]2O [T, Testosterone, reference compound]","Pigmented Macule, Untreated (L)","hamster flank organ; Table 4, T 0.5 μg alone, 18 days",3.6 ± 0.5 mm^2
same,effect on the contralateral flank organ,hamster flank organ,no detectable effect
"CC/C=C\C/C=C\C/C=C\C/C=C\C/C=C\C/C=C\CCCO [cis4,7,10,13,,16,19-docosahexenol]",inhibition at 200 µM,[3]; [10],51%
CCCCC/C=C\C/C=C\C/C=C\CCCCCCC(=O)Cl [homo-γ-linolenoyl chloride],IC50,[3],> 200 µM
CCCCC/C=C/C/C=C/CCCCCCCCC#N [linolelaidyl cyanide nitrile],IC50,[3],> 200 µM
CC/C=C\C/C=C\C/C=C\CCCCCCCC(=O)OC [linolenic acid methyl ester],% Inhibition of [^3 H]4-MA binding,"[2]; Table 1, 200 μM, 200 µM",32%
CCCCC/C=C\C/C=C\CCCCCCCCC#N [linoleyl cyanide nitrile],IC50,[3],> 200 µM
CCCCCCC=CCCCCCCCCC(=O)OC [methyl 10-heptadecenoate],IC50,[3],> 200 µM
"CCC=CCC=CCC=CCCCCCCCCCCCC(=O)OC [methyl 13,16,19-docosatrienoate]",IC50,[3],> 200 µM
CCCCC/C=C\C/C=C\C/C=C\CCCCCCC(=O)OC [methyl homo-γ-linolenate],IC50,[3],> 200 µM
CCCCC/C=C\C/C=C\C/C=C\CCCCC(=O)OC [methyl γ-linolenate],IC50,[3],> 200 µM
CCCC/C=C\CCCCCCCC(=O)OC [myristoleic acid methyl ester],inhibition at 200 µM,[3]; [10],27%
CCCCCCCCCCCCCCCCCCC#N [nonadecane nitrile],IC50,[3],> 200 µM
CCCCC[C@H](O)/C=C/[C@H]1C=CC(=O)[C@@H]1CCCCCCC(=O)O [prostaglandin A1],inhibitory activity in [^3 H]4-MA binding assay,[2]; 0.2 mM,somewhat active
"O=c1c(O)c(-c2ccc(O)c(O)c2)oc2cc(O)cc(O)c12 [quercetin, reference compound]",inhibitory activity,[1],inactive
CCCCCC/C=C/CCCCCCCCCC(=O)O [trans-Vaccenic Acid],inhibition at 200 µM,[3]; [9],39%
CC/C=C\C/C=C\C/C=C\CCCCCCCC(=O)OC [α-Linolenic acid methyl ester],inhibition at 10 µM,[3]; [10],< 10%
same,inhibition at 40 µM,[3]; [10],< 10%
same,inhibition at 200 µM,[3]; [10],< 10%
"CC/C=C\C/C=C\C/C=C\CCCCCCCC(=O)O [α-Linolenic acid, α-linolenic acid]",inhibition at 10 µM,[3]; [4],19 ± 3%
same,inhibition at 40 µM,[3]; [5],27 ± 7%
same,inhibition at 200 µM,[3]; [6],84 ± 6%
same,inhibition at 5 µM,[3],< 10%
same,inhibition at 10 µM,[3]; [7],19%
same,inhibition at 40 µM,[3]; [8],27%
same,inhibition at 200 µM,[3]; [9],84%
same,Percent Inhibition,hamster flank organ,44%
same,Pigmented macule Right (+T),hamster flank organ,27.6 ± 8.2 mm^2
same,Pigmented macule Left,hamster flank organ,4.1 ± 1.2 mm^2
same,inhibition of T-induced growth of pigmented macule,hamster flank organ,less active than γ-LA
CC/C=C\C/C=C\C/C=C\CCCCCCCCO [α-Linolenyl alcohol],inhibition at 10 µM,[3]; [10],< 10%
same,inhibition at 40 µM,[3]; [10],< 10%
same,inhibition at 200 µM,[3]; [10],24 ± 1%
"CCCCC/C=C\C/C=C\C/C=C\CCCCC(=O)Cl [γ-Linolenoyl Chloride, γ-linolenoyl chloride]",IC50,[3],> 200 µM
same,inhibition at 10 µM,[3]; [7],< 10%
same,inhibition at 40 µM,[3]; [8],< 10%
same,inhibition at 200 µM,[3]; [9],< 10%
"CCCCC/C=C\C/C=C\C/C=C\CCCCCOC(C)=O [γ-Linolenyl Acetate, γ-linolenyl acetate]",IC50,[3],> 200 µM
same,inhibition at 5 µM,[3],< 10%
same,inhibition at 10 µM,[3]; [7],< 10%
same,inhibition at 40 µM,[3]; [8],< 10%
same,inhibition at 200 µM,[3]; [9],27%
"CCCCC/C=C\C/C=C\C/C=C\CCCCCO [γ-Linolenyl Alcohol, γ-linolenyl alcohol]",IC50,[3],> 200 µM
same,inhibition at 5 µM,[3],< 10%
same,inhibition at 10 µM,[3]; [7],< 10%
same,inhibition at 40 µM,[3]; [8],< 10%
same,inhibition at 200 µM,[3]; [9],41%
naphthaflavone [reference compound],inhibitory activity,[1],inactive
